# In patent publication US5104865A, “Iron complexes of hydroxypyridones useful for treating iron overload” (National Research Development Corporation, priority 1983, dated 1992):
# Read-outs that look alike come from different tables or passages of the source.
# Experiments:
# Horse spleen ferritin [1] = biological target: T1, Horse spleen ferritin (Equus caballus, UniProt P02791); test: Mobilisation of iron from ferritin; type: biochemical; conditions: 25° C., pH 7.4
# T1 construct: purchased Sigma; host or cells: horse spleen
# T1 sequence (P02791 2-175 limits assumed): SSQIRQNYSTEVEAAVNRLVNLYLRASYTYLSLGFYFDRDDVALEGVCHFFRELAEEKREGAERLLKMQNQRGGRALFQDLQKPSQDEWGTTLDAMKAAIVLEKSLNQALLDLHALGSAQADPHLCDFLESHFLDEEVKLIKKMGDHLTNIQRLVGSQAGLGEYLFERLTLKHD
# Protocol: Horse spleen ferritin (Sigma) was used without further purification and its iron content was estimated spectrophotometrically at 420 nm. The ferritin solution in phosphate buffered saline (Dulbecco-OXOID, 10^-6 M, pH 7.4) was incubated at 25° C. with the compound at 10^-4 M for 6 and 24 hours. Apoferritin (in admixture with ferritin) and the particular linked hydroxypyridone Fe^(III) complex were separated by chromatography on Sephadex G10. The absorption spectra of the high and low molecular weight fractions were recorded and the percentage of iron removed from the ferritin was calculated and is reported in Table 3. For comparative purposes, the procedure was repeated using a blank control, and also with the single ring, bidentate compound 1-ethyl-3-hydroxypyrid-4-one (at 10^-3 M). In addition, results reported in the literature for similar tests with 1×10^-3 M desferrioxamine (Crichton et al, J. Inorganic Biochem., 1980, 13, 305) and with 6×10^-3 M LICAMS (Tufano et al, Biochem. Biophys. Acta, 1981, 668, 420 ) are also given in the Table.
# [2] = 100 uM, pH 7.4
# Protocol: (§1) The partition coefficient Kpart, being the ratio (concentration of compound in n-octanol)/(concentraction of compound in aqueous phase) on partition between n-octanol and aqueous tris hydrochloride (20 mM, pH 7.4), is measured by spectrophotometry at 20° C. for various of the compounds of the previous Examples and for their iron(III) complexes (at 10^-4 M). […] Acid washed glassware is used throughout and, following mixing of 5 ml of the 10^-4 M aqueous solution with 5 ml n-octanol for 1 minute, the aqueous n-octanol mixture is centrifuged at 1,000 g for 30 seconds. The two resulting phases are separated for a concentration determination by spectrophotometry on each. For the metal-free linked hydroxypyridone compounds, the range 220-340 nm is used for concentration determinations whilst for the iron complexes, the range 340-640 nm is used.
# Human transferrin = biological target: T2, Human transferrin (Homo sapiens, UniProt P02787); test: Mobilisation of iron from transferrin; type: biochemical; conditions: for Percentage of iron removed from transferrin after 6 hours: compound 4×10^-3 M, 59Fe(III) transferrin 10^-5 M, tris HCl 0.1M pH 7.4, 6 hours
# T2 construct: purchased Sigma
# T2 sequence (P02787 20-698): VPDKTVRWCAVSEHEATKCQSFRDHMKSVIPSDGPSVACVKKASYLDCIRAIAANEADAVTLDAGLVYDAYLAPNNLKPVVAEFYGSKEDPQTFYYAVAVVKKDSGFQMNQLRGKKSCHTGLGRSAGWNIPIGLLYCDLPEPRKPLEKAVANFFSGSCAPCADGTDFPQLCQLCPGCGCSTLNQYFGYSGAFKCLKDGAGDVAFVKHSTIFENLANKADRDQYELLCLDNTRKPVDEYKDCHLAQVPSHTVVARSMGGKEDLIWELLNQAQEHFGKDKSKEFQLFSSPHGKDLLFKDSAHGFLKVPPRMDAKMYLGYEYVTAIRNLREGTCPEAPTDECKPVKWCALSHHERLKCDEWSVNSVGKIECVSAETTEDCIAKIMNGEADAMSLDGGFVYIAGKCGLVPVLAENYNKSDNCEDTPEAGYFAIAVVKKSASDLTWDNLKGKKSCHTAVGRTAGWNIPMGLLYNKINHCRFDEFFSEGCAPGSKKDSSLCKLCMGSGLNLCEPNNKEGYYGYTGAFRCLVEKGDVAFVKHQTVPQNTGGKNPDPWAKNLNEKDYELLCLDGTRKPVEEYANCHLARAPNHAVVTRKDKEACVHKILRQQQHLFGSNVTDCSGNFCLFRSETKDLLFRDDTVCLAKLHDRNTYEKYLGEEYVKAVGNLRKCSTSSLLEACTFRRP
# Protocol: Human transferrin (Sigma) was loaded with iron(III) by the method of Bates and Schlaback, J. Biol. Chem. (1973) 248, 3228. ^59 Iron (III) transferrin (10^-5 M) was incubated with a 4×10^-3 M solution in tris HCl (0.1M, pH 7.4) of one of various pyridones as indicated in Table 4 for periods of 6 hours.
# [3] = Partition coefficient Kpart between n-octanol and aqueous tris hydrochloride; conditions: n-octanol/tris hcl, pH 7.4
# Protocol: as §1
# [4] = Affinity for iron(III) expressed as log Ksol; type: physicochemical
# Excerpt: In order to solubilise iron(III) hydroxide, log Ksol must be greater than 0 and in order to remove iron from transferrin, log Ksol should be in excess of 6.0. The log Ksol values for the single ring compounds 3-hydroxyl-1-methylpyrid-2-one and 1,2-dimethyl-3-hydroxypyrid-4-one, by way of example, are 10.0 and 9.5, respectively, thus comparing favourably with those of the bidentate hydroxamates at about 4.0, of catechols at about 8.0, of desferrioxamine at 6.0, and of diethylenetriamine penta-acetic acid (DTPA) at 2.0.
# Horse spleen ferritin [5] = biological target: T1, Horse spleen ferritin; conditions: similar test, cited from earlier work
# human erythrocytes = test: Permeation of 59Fe labelled iron complexes into human erythrocytes; type: cell-based; conditions: 59Fe complex 10^-3 M, 5% erythrocyte suspension, 1 hour, 37° C., pH 7.4; mean of at least three determinations
# Protocol: The accumulation of iron by human erythrocytes which are associated with the iron complexes of three compounds described in earlier Examples was studied by incubating for 1 hour at 37° C. a 5% suspension of erythrocytes in a medium consisting of the ^59 Fe labelled iron complex^(1) (10^-3 M) in aqueous sodium chloride (130 mM) buffered to pH 7.4 by tris hydrochloride (2 ml). Following this period of incubation, an aliquot of the erythrocyte/medium mixture was placed above a layer of silicone oil and the erythrocytes separated by centrifugation through the oil. The ^59 Fe levels associated with the erythrocytes and the incubation medium were then counted. By way of comparison, a similar experiment was concluded with ferric citrate.
# inverted rat jejunal sac = test: Permeation of inverted rat jejunal sac by iron complexes; type: in vitro ADME; conditions: relative to ferric chloride as 1; 59Fe complexes, 37° C., up to 1 hour
# Excerpt: Rats (male Sprague Dawley, 60 g) were killed and the jejunum removed, everted and cut into three segments (4 cm length). […] The contents of the sac were counted for ^59 Fe and measured spectrophotometrically.
compound,measurement,setting,value
O=C(Cn1cccc(O)c1=O)NCCN(CCNC(=O)Cn1cccc(O)c1=O)CCNC(=O)Cn1cccc(O)c1=O [Compound 8],"Percentage of iron removed from ferritin, 6 hours",Horse spleen ferritin [1]; compound 10^-4 M,3%
same,"Percentage of iron removed from ferritin, 24 hours",Horse spleen ferritin [1]; compound 10^-4 M,10%
same,"Partition coefficient Kpart, iron complex [Fe^III -(compound)3 ]",[2],0.03
same,Percentage of iron removed from transferrin after 6 hours,Human transferrin,40%
same,"Removal of iron from transferrin, comparison in words",Human transferrin; versus desferrioxamine and EDTA,markedly better results than desferrioxamine or EDTA
same,logD at 100 µM,[3],-1.7
"CC(=O)N(O)CCCCCNC(=O)CCC(=O)N(O)CCCCCNC(=O)CCC(=O)N(O)CCCCCN [Desferrioxamine, desferrioxamine]",log Ksol,[4],6.0
same,"Percentage of iron removed from ferritin, 6 hours","Horse spleen ferritin [5]; 10^-3 M, literature value (Crichton et al 1980)",1.2%
same,Percentage of iron removed from transferrin after 6 hours,Human transferrin,17%
ferric citrate [Fe^III citrate],Amount of complex entering erythrocytes,human erythrocytes,< 5 n.mole
"CCn1ccc(=O)c(O)c1 [1-ethyl-3-hydroxypyrid-4-one, reference compound]","Percentage of iron removed from ferritin, 6 hours",Horse spleen ferritin [1]; compound 10^-3 M,25%
same,"Percentage of iron removed from ferritin, 24 hours",Horse spleen ferritin [1]; compound 10^-3 M,44%
"O=C(O)CN(CCN(CC(=O)O)CC(=O)O)CCN(CC(=O)O)CC(=O)O [DTPA, diethylenetriamine penta-acetic acid]",log Ksol,[4],2.0
O=C(Cn1cccc(O)c1=O)NCCCCCCCCNC(=O)Cn1cccc(O)c1=O [Compound 5],"Partition coefficient Kpart, iron complex [Fe^III -(compound)3 ]",[2],0.10
same,Percentage of iron removed from transferrin after 6 hours,Human transferrin,32%
same,logD at 100 µM,[3],-1.77
"O=C(O)CN(CCN(CC(=O)O)CC(=O)O)CC(=O)O [EDTA, ethylenediamine tetra-acetic acid, reference compound]",Percentage of iron removed from transferrin after 6 hours,Human transferrin,27%
"O=C(Cn1cccc(O)c1=O)NCCCN(CCCNC(=O)Cn1cccc(O)c1=O)C(=O)Cn1cccc(O)c1=O [Compound 10, N-(3-hydroxy-2-oxopyrid-1-ylacetyl)-N-[3-(3-hydroxy-2-oxopyrid-1-ylacetamido)-propyl]-3-(3-hydroxy-2-oxopyrid-1-ylacetamido)-propylamine]","Partition coefficient Kpart, iron complex [Fe^III -(compound)3 ]",[2],0.3
same,logD at 100 µM,[3],-0.699
"[Cl][Fe]([Cl])[Cl] [FeCl3, ferric chloride]",Relative iron uptake into serosal space of jejunal sac,inverted rat jejunal sac,1
"O=C(Cn1cccc(O)c1=O)NCCCCCCNC(=O)Cn1cccc(O)c1=O [Compound 4, 1,6-di-(3-hydroxy-2-oxopyrid-1-ylacetamido)-hexane]","Percentage of iron removed from ferritin, 6 hours",Horse spleen ferritin [1]; compound 10^-4 M,< 1%
same,"Percentage of iron removed from ferritin, 24 hours",Horse spleen ferritin [1]; compound 10^-4 M,3%
O=C(NCCCCN(CCCNC(=O)c1cc(S(=O)(=O)O)cc(O)c1O)C(=O)c1cc(S(=O)(=O)O)cc(O)c1O)c1cc(S(=O)(=O)O)cc(O)c1O [LICAMS],"Percentage of iron removed from ferritin, 6 hours","Horse spleen ferritin [5]; 6 × 10^-3 M, literature value (Tufano et al 1981)",0%
Cn1cccc(O)c1=O [3-hydroxyl-1-methylpyrid-2-one],log Ksol,[4],10.0
"Cc1c(O)c(=O)ccn1C [1,2-dimethyl-3-hydroxypyrid-4-one]",log Ksol,[4],9.5
